For one assay, the system named is BT 549. Briefly: Cytotoxicity propidium iodide assay, BT 549. It counts as cell-based. As to conditions: Homo sapiens; BT 549 (breast), 48 hours treatment; read-out: IC50 Values in μM, C3c. On the procedure:
(§1) The assay was designed as in the reference, Anticancer Drugs, 2002, 13, 1-8, the disclosure of which is incorporated herein by reference for the teaching of the assay.
(§2) Cells from cell lines (ATCC) as mentioned in the table given below were seeded at a density of 3000 cells/well in a white opaque 96-well plate. Following incubation at 37° C./5% CO2 for a period of 18-24 hours, the cells were treated with various concentrations (stock solution was prepared in DMSO and subsequent dilutions were made in media as per ATCC guidelines) of the compounds of the present invention for a period of 48 hours. At the end of treatment, the culture medium was discarded, the cells were washed with 1×PBS and 200 μL of […] propidium iodide was added to each well. The plates were frozen at 70° C. overnight. For analysis, the plates were warmed to RT, allowed to thaw and were read in PoleStar fluorimeter with the fluorescence setting. The percentage of viable cells in the non-treated set of wells was considered to be 100 and the percentage viability following treatment was calculated accordingly. IC50 values were calculated from graphs plotted using these percentages. IC50 values for certain compounds of present invention are depicted in Table 1 and % Inhibition of certain compounds of present invention are depicted in Table 2.

Another assay deals with K562. Kind of assay: Cytotoxicity propidium iodide assay, K562. It counts as cell-based. As to conditions: Homo sapiens; K562 (CML), 48 hours treatment; read-out: IC50 Values in μM, C6a. The method, then: as §1, §2
For the next assay, the system named is KCL22/SR. Kind of assay: Cytotoxicity propidium iodide assay, KCL22/SR. The class given is cell-based. Conditions: Homo sapiens, KCL-22; KCL22/SR (CML), 48 hours treatment; read-out: IC50 Values in μM, C6e. On the procedure:
as §1, §2

The next assay has as its system A2780. Kind of assay: Cytotoxicity propidium iodide assay, A2780. The class given is cell-based. As to conditions: Homo sapiens; A2780 (ovarian), 48 hours treatment; read-out: IC50 Values in μM, C1a. The procedure, abridged: (§3)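 Cells seeded at 3000 cells/well, grown 18-24 h at 37° C./5% CO2, then exposed to graded compound concentrations for 48 h. After PBS wash, […] propidium iodide was added, plates frozen overnight, thawed and read by fluorescence. IC50 derived from viability relative to untreated wells (100%).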

The subject of a further assay is KU812/SR. Kind of assay: Cytotoxicity propidium iodide assay, KU812/SR. The class given is cell-based. As to conditions: Homo sapiens; KU812/SR (CML), 48 hours treatment; read-out: IC50 Values in μM, C6c. The method, then: as §1, §2
A further assay has as its system PANC 1. Kind of assay: Cytotoxicity propidium iodide assay, PANC 1. Conditions: Homo sapiens; PANC 1 (pancreatic), 48 hours treatment; read-out: IC50 Values in μM, C4a. It counts as cell-based. The method, then:
as §1, §2

The next assay concerns T315I. Briefly: Cytotoxicity propidium iodide assay, T315I. The class given is cell-based. Conditions: T315I (CML), 48 hours treatment; read-out: IC50 Values in μM, C6b. On the procedure: as §1, §2
A further assay deals with AsPC 1. Kind of assay: Cytotoxicity propidium iodide assay, AsPC 1. Conditions: Homo sapiens, ASPC1; AsPC 1 (pancreatic), 48 hours treatment; read-out: IC50 Values in μM, C4b. The class given is cell-based. On the procedure:
as §1
as §2, with “The plates were frozen at 70° C. overnight.” left out

The subject of a further assay is KU812. Kind of assay: Cytotoxicity propidium iodide assay, KU812. It counts as cell-based. As to conditions: Homo sapiens; KU812 (CML), 48 hours treatment; read-out: IC50 Values in μM, C6d. On the procedure: as §1, §2
For the next assay, the system named is PC3. Briefly: Cytotoxicity propidium iodide assay, PC3. Conditions: Homo sapiens, PC-3; PC3 (prostate), 48 hours treatment; read-out: IC50 Values in μM, C2a. It counts as cell-based, human. The procedure, abridged:
as §3

Another assay deals with MDA MB 468. Kind of assay: Cytotoxicity propidium iodide assay, MDA MB 468. It counts as cell-based. As to conditions: Homo sapiens; MDA MB 468 (breast), 48 hours treatment; read-out: IC50 Values in μM, C3b. On the procedure: as §1, §2
A further assay deals with MDA MB 231. Briefly: Cytotoxicity propidium iodide assay, MDA MB 231. As to conditions: Homo sapiens; MDA MB 231 (breast), 48 hours treatment; read-out: IC50 Values in μM, C3a. It counts as cell-based. The method, then:
as §1
as §2, with “The plates were frozen at 70° C. overnight.” left out

For a further assay, the system named is KCL22. Kind of assay: Cytotoxicity propidium iodide assay, KCL22. The class given is cell-based. As to conditions: Homo sapiens, KCL-22; KCL22 (CML), 48 hours treatment; read-out: IC50 Values in μM, C6f. On the procedure:
as §1
as §2, with “The plates were frozen at 70° C. overnight.” left out

A further assay concerns MCF7. Briefly: Cytotoxicity propidium iodide assay, MCF7. The class given is cell-based. As to conditions: Homo sapiens; MCF7 (breast), 48 hours treatment; read-out: IC50 Values in μM, C3d. On the procedure: as §1, §2
The subject of another assay is BxPC3. Kind of assay: Cytotoxicity propidium iodide assay, BxPC3. It counts as cell-based. As to conditions: Homo sapiens, BXPC-3; BxPC3 (pancreatic), 48 hours treatment; read-out: IC50 Values in μM, C4c. On the procedure: as §1, §2
The subject of another assay is LN229. Briefly: Cytotoxicity propidium iodide assay, LN229. As to conditions: Homo sapiens, LN-229; LN229 (glioblastoma), 48 hours treatment; read-out: IC50 Values in μM, C5a. It counts as cell-based. The method, then:
as §1, §2

The test system of another assay is PI3K/mTOR pathway. Kind of assay: Western blot analysis in A2780 ovarian cancer cell line. The class given is cell-based. Conditions: A2780 cells treated for 1 hour; FIG. 1A-1E. The method, then:
Protocol for Western Blot Analysis
A2780 ovarian cancer cell line (ATCC) were grown to approximately 70% confluence in 100-mm tissue culture dishes and then treated for 1 hour with […] compounds of Example 2, 3, 5, 16, 19, 55 and 59. Total protein was extracted using cell lysis buffer (NaCl […], NP40 0.67%, Tris-Cl, pH 7.5, 67 mM) containing protease inhibitors and phosphatase inhibitors (Beta-glycerol phosphate 40 mM, DTT 1 mM, NaF 0.4 mM, Sodium-Orthovanadate 0.4 mM) at 4° C. for 1 hour. Cell lysates were then centrifuged at 2×10^4 g for 10 minutes at 4° C., and the protein concentration of the supernatant was quantified using the Bradford's method (BioRad, USA). For SDS-PAGE, 50 μg protein was loaded in SDS-PAGE, transferred to a polyvinylidene difluoride membrane (Bio-Rad, USA) and blocked with 5 mL buffer [5% skim milk and 0.1% Tween] for 1 hour 30 minutes. Membrane were probed with primary antibody (all primary antibodies were from cell signaling with 1:1000 in TBST solution) of respective protein at 4° C. overnight. Peroxidase-labeled anti-rabbit or anti-mouse antibodies (Santacruze, USA) were used as the secondary antibody. Actin and respective whole protein levels were used as the control for protein loading. Protein antigens were detected using Chemiluminescent Substrate (Thermo scientific, USA) and exposed on Kodak station.
On the technique in general: In western blotting, separated proteins are transferred to a membrane and probed.

In a further assay the test system is LN18. Briefly: Cytotoxicity propidium iodide assay, LN18. The class given is cell-based. As to conditions: Homo sapiens, LN-18; LN18 (glioblastoma), 48 hours treatment; read-out: IC50 Values in μM, C5b. The method, then:
as §1, §2

The test system of a further assay is U 87 MG. Briefly: Cytotoxicity propidium iodide assay, U 87 MG. It counts as cell-based. As to conditions: Homo sapiens; U 87 MG (glioblastoma), 48 hours treatment; read-out: IC50 Values in μM, C5c. On the procedure: as §1
as §2, with “The plates were frozen at 70° C. overnight.” left out

SMILES strings stand for the structures.

By IC50 is commonly meant the concentration that inhibits the measured activity by half.

As for `Cn1c(=O)n(CCN2CCOCC2)c2c3cc(-c4cnc5ccccc5c4)ccc3ncc21` [Example 70, 3-Methyl-1-(2-morpholinoethyl)-8-(quinolin-3-yl)-1H-imidazo[4,5-c]quinolin-2(3H)-one], the IC50 was found to be 2.1 µM with BT 549; 0.7 µM in the assay with K562; 1.57 µM in the assay with KCL22/SR; 0.3 µM in the assay on A2780; 3.38 µM in the assay with KU812/SR; 1 µM in the assay on PANC 1. Further, the IC50 with T315I amounted to 2.56 µM; in the assay with AsPC 1, 1.6 µM; in the assay on KU812, 4 µM; in the assay on PC3, 0.9 µM; in the assay on MDA MB 468, 1.1 µM; in the assay on MDA MB 231 it was 0.7 µM. Further, the half-maximal inhibitory concentration (IC50) in the assay with KCL22 was determined as 2.17 µM; with MCF7 it was 0.7 µM; in the assay with BxPC3, 0.7 µM.
As to `COc1ccc(-n2c(=O)n(C)c3cnc4ccc(-c5cnc6ccccc6c5)cc4c32)cn1` [Example 20, 1-(6-Methoxypyridin-3-yl)-3-methyl-8-(quinolin-3-yl)-1H-imidazo[4,5-c]quinolin-2(3H)-one], the IC50 with BT 549 is 1 µM; in the assay on K562, 0.1 µM; in the assay on KCL22/SR it was 1.09 µM; with A2780, 0.07 µM; in the assay on KU812/SR, 5.44 µM; in the assay with PANC 1, 0.25 µM. Further, the half-inhibitory concentration (IC50) with T315I was 1.96 µM; in the assay with AsPC 1, 0.4 µM; in the assay with KU812, 1.99 µM; in the assay with PC3, 0.27 µM; in the assay on MDA MB 468 it was 0.47 µM; in the assay on MDA MB 231, 0.37 µM. Besides, the concentration for half-maximal inhibition (IC50) in the assay with KCL22 is 2.86 µM; in the assay on MCF7 it was 0.55 µM; in the assay on BxPC3, 0.45 µM.
For `Cn1c(=O)n(-c2ccc(C(C)(C)C#N)nc2)c2c3cc(-c4cccnc4)ccc3ncc21` [Example 1, 2-Methyl-2-(5-(3-methyl-2-oxo-8-(pyridin-3-yl)-2,3-dihydro-1H-imidazo[4,5-c]quinolin-1-yl)pyridin-2-yl)propanenitrile], the IC50 in the assay on K562 turned out to be 0.9 µM; in the assay with KCL22/SR it was 0.62 µM; with A2780, 0.4 µM; in the assay on KU812/SR, 0.96 µM; in the assay with T315I, 3.3 µM; in the assay on PC3 it was 0.22 µM. Also, the IC50 with KCL22 was 1.18 µM.
As for `Cn1c(=O)n(-c2ccc(C(F)(F)F)nc2)c2c3cc(-c4cnc(N)c(C(F)(F)F)c4)ccc3ncc21` [Example 55, 8-(6-Amino-5-(trifluoromethyl)pyridin-3-yl)-3-methyl-1-(6-(trifluoromethyl)pyridin-3-yl)-1H-imidazo[4,5-c]quinolin-2(3H)-one], the IC50 was 0.17 µM with BT 549; 0.056 µM with K562; 0.06 µM in the assay on KCL22/SR; 0.009 µM in the assay with A2780; 0.23 µM in the assay on KU812/SR; 0.19 µM in the assay with T315I. Also, the IC50 in the assay on AsPC 1 came out at 0.04 µM; in the assay with PC3, 1.6 µM; with MDA MB 468 it was 0.075 µM; in the assay on MDA MB 231, 0.035 µM; with LN229, 0.096 µM; in the assay on MCF7 it was 0.06 µM. The values for the IC50 in the assay with LN18, with U 87 MG and with BxPC3 were 0.282 µM, 7.92 µM and 0.027 µM, respectively. Besides, the “Akt, S6 and 4EBP1 phosphorylation (Western blot)” value in the assay on PI3K/mTOR pathway is “inhibit Akt, S6 and 4EBP1 phosphorylation”.

Source of the values: US20130310374A1, “Substituted Imidazoquinoline Derivatives” (PIRAMAL ENTERPRISES LIMITED`, priority 2010, published 2013).
